Test results: patent US20230416228A1 (Forkhead Biotherapeutics, Inc., priority 2020, published 2023)

Target: T1, human FOXO1 (constitutively active form Thr24Ala, Ser256Ala, Ser319Ala) (Homo sapiens, UniProt Q12778, S256A/S319A/T24A)
T1 construct: expressed in transfected cells; host or cells: HEK293 cells transfected with pcDNA3.1 plasmid
Experiment: FOXO1 inhibitor activity assay: cell-based transcriptional (luciferase) reporter assay in HEK293 cells
Settings: HEK293 cells transfected with insulin response element firefly luciferase reporter, FOXO1 and Renilla luciferase; 10-point dose response 50 μM to 2.5 nM; 24 hours
Procedure, shortened: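 IC50 and maximal inhibition were fitted by 4-parameter logistic regression on normalized firefly/Renilla luciferase ratios. The 0% reference used RFP in place of FOXO1, and the 100% reference was DMSO-only with all plasmids.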

T1 sequence (Q12778 whole entry T24A/S256A/S319A): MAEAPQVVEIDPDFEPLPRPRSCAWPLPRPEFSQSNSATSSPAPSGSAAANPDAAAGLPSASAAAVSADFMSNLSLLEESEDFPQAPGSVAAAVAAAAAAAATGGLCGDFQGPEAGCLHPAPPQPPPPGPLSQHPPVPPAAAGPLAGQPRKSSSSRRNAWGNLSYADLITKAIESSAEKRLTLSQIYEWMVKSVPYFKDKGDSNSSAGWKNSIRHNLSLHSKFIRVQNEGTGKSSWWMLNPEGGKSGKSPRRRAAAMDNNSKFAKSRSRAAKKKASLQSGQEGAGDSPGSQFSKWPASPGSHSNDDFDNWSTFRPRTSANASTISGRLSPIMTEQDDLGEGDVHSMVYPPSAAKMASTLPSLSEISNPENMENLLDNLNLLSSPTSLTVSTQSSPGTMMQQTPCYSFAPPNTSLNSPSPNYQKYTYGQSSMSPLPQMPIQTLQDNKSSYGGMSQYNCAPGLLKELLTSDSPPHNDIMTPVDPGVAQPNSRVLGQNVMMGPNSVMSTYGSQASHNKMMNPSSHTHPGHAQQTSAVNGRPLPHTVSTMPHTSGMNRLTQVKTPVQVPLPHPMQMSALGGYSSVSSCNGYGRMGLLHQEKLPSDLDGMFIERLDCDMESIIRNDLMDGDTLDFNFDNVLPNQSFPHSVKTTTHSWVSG

| SMILES | IC50 [nM] |
| --- | --- |
| CN1CCN(c2ccc(C(=O)Nc3cc(-c4nc5ccccc5[nH]4)n(C)n3)cc2)CC1=O [Compound A-235, N-[5-(1H-benzimidazol-2-yl)-1-methyl-pyrazol-3-yl]-4-(4-methyl-3-oxo-piperazin-1-yl)benzamide] | 100 to 300 |
| Cc1nc(N2CCOCC2)ccc1C(=O)Nc1cc(-c2nc3ccccc3[nH]2)n(C)n1 [Compound A-236] | 100 to 300 |
| Cn1nc(NC(=O)c2ccc(N3CCOCC3CO)nc2)cc1-c1nc2ccccc2[nH]1 (stereo not drawn) [Compound A-238, N-[5-(1H-benzimidazol-2-yl)-1-methyl-pyrazol-3-yl]-6-[3-(hydroxymethyl)morpholin-4-yl]pyridine-3-carboxamide] | 100 to 300 |
| COc1cc(F)c2[nH]c(-c3cc(NC(=O)c4ccc(N5CCOC(CO)C5)nc4)n[nH]3)nc2c1 (stereo not drawn) [Compound A-239, N-[5-(7-fluoro-5-methoxy-1H-benzimidazol-2-yl)-1H-pyrazol-3-yl]-6-[2-(hydroxymethyl)morpholin-4-yl]pyridine-3-carboxamide] | > 1000 |
| CN1CCN(c2ccc(C(=O)Nc3nc(-c4nc5ccccc5[nH]4)n(C)n3)cc2)CC1 [Compound A-241, N-[5-(1H-benzimidazol-2-yl)-1-methyl-1,2,4-triazol-3-yl]-4-(4-methylpiperazin-1-yl)benzamide] | 300 to 1000 |
| CN1CCN(c2ccc(C(=O)Nc3cc(-c4nc5ccccc5[nH]4)[nH]n3)cc2)CC1=O [Compound A-242, N-[5-(1H-benzimidazol-2-yl)-1H-pyrazol-3-yl]-4-(4-methyl-3-oxo-piperazin-1-yl)benzamide] | 100 to 300 |
| CN1CCN(c2ccc(C(=O)Nc3cc(-c4nc5ccccc5[nH]4)[nH]n3)cn2)CC1=O [Compound A-243, N-[5-(1H-benzimidazol-2-yl)-1H-pyrazol-3-yl]-6-(4-methyl-3-oxo-piperazin-1-yl)pyridine-3-carboxamide] | 300 to 1000 |
| CC(C)C(=O)N1CCN(c2ccc(C(=O)Nc3cc(-c4nc5ccccc5[nH]4)n(C)n3)cn2)CC1 [Compound A-244, N-[5-(1H-benzimidazol-2-yl)-1-methyl-pyrazol-3-yl]-6-[4-(2-methylpropanoyl)piperazin-1-yl]pyridine-3-carboxamide] | 100 to 300 |
| CN1CCN(c2ccc(C(=O)Nc3cc(-c4nc5ccccc5[nH]4)n(C)n3)cn2)CC1=O [Compound A-246, N-[5-(1H-benzimidazol-2-yl)-1-methyl-pyrazol-3-yl]-6-(4-methyl-3-oxo-piperazin-1-yl)pyridine-3-carboxamide] | 100 to 300 |
| Cn1nc(NC(=O)c2ccc(N3CCN4C(=O)CC[C@@H]4C3)nc2)cc1-c1nc2ccccc2[nH]1 [Compound A-249, 6-[(8aR)-6-oxo-1,3,4,7,8,8a-hexahydropyrrolo[1,2-a]pyrazin-2-yl]-N-[5-(1H-benzimidazol-2-yl)-1-methyl-pyrazol-3-yl]pyridine-3-carboxamide] | 100 to 300 |
| Cn1nc(NC(=O)c2ccc(N3CCN4C(=O)CC[C@H]4C3)nc2)cc1-c1nc2ccccc2[nH]1 [Compound A-250] | 300 to 1000 |
| Cc1nc(N2CCN(C)CC2)ccc1C(=O)Nc1cc(-c2nc3ccccc3[nH]2)n(C)n1 [Compound A-253, N-[5-(1H-benzimidazol-2-yl)-1-methyl-pyrazol-3-yl]-2-methyl-6-(4-methylpiperazin-1-yl)pyridine-3-carboxamide] | 100 to 300 |
| CC(=O)N1CCN(c2ccc(C(=O)Nc3cc(-c4nc5ccccc5[nH]4)n(C)n3)cn2)CC1CO (stereo not drawn) [Compound A-254, 6-14-acetyl-3-(hydroxymethyl)piperazin-1-yl-N-[5-(1H-benzimidazol-2-yl)-1-methyl-pyrazol-3-yl]pyridine-3-carboxamide] | > 1000 |
| Cn1nc(NC(=O)c2ccc(N3CCNC(CO)C3)nc2)cc1-c1nc2ccccc2[nH]1 (stereo not drawn) [Compound A-258, N-[5-(1H-benzimidazol-2-yl)-1-methyl-pyrazol-3-yl]-6-[3-(hydroxy-methyl)piperazin-1-yl]pyridine-3-carboxamide] | 300 to 1000 |
| [2H]C([2H])([2H])OCCN1CCN(c2ccc(C(=O)Nc3cc(-c4nc5ccccc5[nH]4)n(C)n3)cn2)CC1 [Compound A-260, N-[5-(1H-benzimidazol-2-yl)-1-methyl-pyrazol-3-yl]-6-[4-[2-(trideuterio-methoxy)ethyl]piperazin-1-yl]pyridine-3-carboxamide] | 100 to 300 |
| Cc1nc(N2CCOC(CO)C2)ccc1C(=O)Nc1cc(-c2nc3ccccc3[nH]2)n(C)n1 (stereo not drawn) [Compound A-262, N-[5-(1H-benzimidazol-2-yl)-1-methyl-pyrazol-3-yl]-6-[2-(hydroxy-methyl)morpholin-4-yl]-2-methyl-pyridine-3-carboxamide] | 100 to 300 |
| CN1CCN(c2ccc(C(=O)Nc3cc(-c4nc5ccccc5[nH]4)n(C)n3)cn2)CC1CO (stereo not drawn) [Compound A-263, N-[5-(1H-benzimidazol-2-yl)-1-methyl-pyrazol-3-yl]-6-[3-(hydroxy-methyl)-4-methyl-piperazin-1-yl]pyridine-3-carboxamide] | 100 to 300 |
| Cc1nc(N2CCN(C3COC3)CC2)ccc1C(=O)Nc1cc(-c2nc3ccccc3[nH]2)n(C)n1 [Compound A-264, N-[5-(1H-benzimidazol-2-yl)-1-methyl-pyrazol-3-yl]-2-methyl-6-[4-(oxetan-3-yl)piperazin-1-yl]pyridine-3-carboxamide] | 300 to 1000 |
| Cn1nc(NC(=O)c2ccc(N3CCC4(COC4)C3)nc2)cc1-c1nc2ccccc2[nH]1 [Compound A-268, N-[5-(1H-benzimidazol-2-yl)-1-methyl-pyrazol-3-yl]-6-(2-oxa-7-azaspiro[3.4]octan-7-yl)pyridine-3-carboxamide] | 100 to 300 |

Further lines, results first:

| IC50 [nM] | SMILES |
| --- | --- |
| < 100 | COc1cc(F)c2[nH]c(-c3cc(NC(=O)c4ccc(N5CCOC(CO)C5)nc4)nn3C)nc2c1 (stereo not drawn) [Compound A-237, N-[5-(7-fluoro-5-methoxy-1H-benzimidazol-2-yl)-1-methyl-pyrazol-3-yl]-6-[2-(hydroxymethyl)morpholin-4-yl]pyridine-3-carboxamide] |
| < 100 | COc1cc(F)c2[nH]c(-c3cc(NC(=O)c4ccc(N5CCN(C(C)=O)CC5)nc4)nn3C)nc2c1 [Compound A-240, 6-(4-acetylpiperazin-1-yl)-N-[5-(7-fluoro-5-methoxy-1H-benzimidazol-2-yl)-1-methyl-pyrazol-3-yl]pyridine-3-carboxamide] |
| < 100 | C[C@H]1CN(c2ccc(C(=O)Nc3cc(-c4nc5ccccc5[nH]4)n(C)n3)cn2)CCN1 [Compound A-245, N-[5-(1H-benzimidazol-2-yl)-1-methyl-pyrazol-3-yl]-6-[(3S)-3-methylpiperazin-1-yl]pyridine-3-carboxamide] |
| < 100 | C[C@@H]1CN(c2ccc(C(=O)Nc3cc(-c4nc5ccccc5[nH]4)n(C)n3)cn2)CCN1 [Compound A-247, N-[5-(1H-benzimidazol-2-yl)-1-methyl-pyrazol-3-yl]-6-[(3R)-3-methylpiperazin-1-yl]pyridine-3-carboxamide] |
| < 100 | Cn1nc(NC(=O)c2ccc(N3CCO[C@@H](CO)C3)nc2)cc1-c1nc2ccccc2[nH]1 [Compound A-248, N-[5-(1H-benzimidazol-2-yl)-1-methyl-pyrazol-3-yl]-6-[(2R)-2-(hydroxymethyl)morpholin-4-yl]pyridine-3-carboxamide] |
| < 100 | Cn1nc(NC(=O)c2ccc(N3CCO[C@H](CO)C3)nc2)cc1-c1nc2ccccc2[nH]1 [Compound A-251, N-[5-(1H-benzimidazol-2-yl)-1-methyl-pyrazol-3-yl]-6-[(2S)-2-(hydroxymethyl)morpholin-4-yl]pyridine-3-carboxamide] |
| < 100 | Cn1nc(NC(=O)c2ccc(OC3COC3)c(Cl)c2)cc1-c1nc2ccccc2[nH]1 [Compound A-252, N-[5-(1H-benzimidazol-2-yl)-1-methyl-pyrazol-3-yl]-3-chloro-4-(oxetan-3-yloxy)benzamide] |
| < 100 | C[C@@H]1CN(c2ccc(C(=O)Nc3cc(-c4nc5ccccc5[nH]4)n(C)n3)cn2)C[C@H](C)N1 [Compound A-255, N-[5-(1H-benzimidazol-2-yl)-1-methyl-pyrazol-3-yl]-6-[(3R,5S)-3,5-dimethylpiperazin-1-yl]pyridine-3-carboxamide] |
| < 100 | COCCOc1ccc2[nH]c(-c3cc(NC(=O)c4ccc(OC)c(Cl)c4)n[nH]3)nc2c1 [Compound A-256, 3-chloro-4-methoxy-N-[5-[5-(2-methoxyethoxy)-1H-benzimidazol-2-yl]-1H-pyrazol-3-yl]benzamide] |
| < 100 | Cn1nc(NC(=O)c2ccc(N3CCN(CC(C)(C)O)CC3)cc2)cc1-c1nc2ccccc2[nH]1 [Compound A-259, N-[5-(1H-benzimidazol-2-yl)-1-methyl-pyrazol-3-yl]-4-[4-(2-hydroxy-2-methyl-propyl)piperazin-1-yl]benzamide] |
| < 100 | COc1ccc(C(=O)Nc2cc(-c3nc4cc(N5CCN(C)CC5)ccc4[nH]3)[nH]n2)cc1Cl [Compound A-261, 3-chloro-4-methoxy-N-[5-[5-(4-methylpiperazin-1-yl)-1H-benzimidazol-2-yl]-1H-pyrazol-3-yl]benzamide] |
| < 100 | COc1ccc(C(=O)Nc2cc(-c3nc4cc(N5CCOCC5)ccc4[nH]3)[nH]n2)cc1Cl [Compound A-265, 3-chloro-4-methoxy-N-[15-(5-morpholino-1H-benzimidazol-2-yl)-1H-pyrazol-3-yl]benzamide] |
| < 100 | Cn1nc(NC(=O)c2ccc(N3CCN(CCOC4CC4)CC3)nc2)cc1-c1nc2ccccc2[nH]1 [Compound A-266, N-[5-(1H-benzimidazol-2-yl)-1-methyl-pyrazol-3-yl]-6-[4-[2-(cyclo-propoxy)ethyl]piperazin-1-yl]pyridine-3-carboxamide] |
| < 100 | Cn1nc(NC(=O)c2ccc(N3C[C@H]4COC[C@H]4C3)nc2)cc1-c1nc2ccccc2[nH]1 [Compound A-267, 6-[(3aR,6aS)-1,3,3a,4,6,6a-hexahydrofuro[3,4-c]pyrrol-5-yl]-N-[5-(1H-benzimidazol-2-yl)-1-methyl-pyrazol-3-yl]pyridine-3-carboxamide] |
